US20220304936A1, “DRUG-POLYMER AMORPHOUS SOLID DISPERSIONS USING LINEAR POLY(ACRYLIC ACID) POLYMERS” (LUBRIZOL ADVANCED MATERIALS, INC., priority 2019, published 2022)
In brackets after ≈: the same amount, converted by molar mass.

Columns and labels:
[1] = cited from earlier work
[2] = Solubility limit of drug in equilibrated dissolution media; format: physicochemical; details: equilibrated dissolution media (0.1 N HCl), simulated gastric fluid; 750 mL 0.1 N HCl, 37° C.
[3] = Physical form and Tg of formulations by XRPD and/or DSC; format: physicochemical; details: as prepared
Description: The physical form of the product is identified visually (e.g., solid powder) and by XRPD and/or DSC (to assess amorphous or crystalline state). Tg values are estimates from DSC curves.
X-ray Powder Diffraction (XRPD) is performed with a Panalytical X'Pert^3 Powder XRPD. FIGS. 8-10 show XRPD plots for various formulations made using ITZ and PAA-8. In FIG. 8, plots for ITZ alone (Neat IZT, Formulation F25), a physical mixture of 15% ITZ and 85% PAA (PM 15%, Formulation F26), and a spray-dried solid dispersion of 15% ITZ and 85% PAA (ASD 15%, Formulation F2), are shown. In FIG. 9, plots for ITZ alone (Neat IZT, Formulation F25), a physical mixture of 30% ITZ and 70% PAA (PM 30%, Formulation F27), and a spray-dried solid dispersion of 30% ITZ and 70% PAA (ASD 30%, Formulation F3), are shown. In FIG. 10, plots for ITZ alone (Neat IZT, Formulation F25), a physical mixture of 50% ITZ and 50% PAA (PM 50%, Formulation F28), and a spray-dried solid dispersion of 50% ITZ and 50% PAA (ASD 50%, Formulation F5), are shown.
XRPD is performed with Si zero background holders. The 2-theta position is performed with a Panalytical Si reference standard disc. The XRPD instrument configuration is Bragg-Brentano geometry.
Differential Scanning calorimetry (DSC) is performed with a Mettler-Toldeo DSC-1 instrument (no modulated DSC software) using a sample amount of 5-10 mg. […]

[4] = model APIs; cited from earlier work

In the case of CCC(C)n1ncn(-c2ccc(N3CCN(c4ccc(OCC5COC(Cn6cncn6)(c6ccc(Cl)cc6Cl)O5)cc4)CC3)cc2)c1=O [Itraconazole, 1-(butan-2-yl)-4-{4-[4-(4-{[(2R, 4S)-2-(2,4-dichlorophenyl)-2-(1H-1,2,4-triazol-1-ylmethyl)-1,3-dioxolan-4-yl]methoxylphenyl)piperazin-1-yl]phenyl}-4,5-dihydro-1H-1,2,4-triazol-5-one], the Aqueous solubility [1] is given as 0.001 to 0.004 µg/mL, the solubility in water ([1]; water) is given as 0.001 to 0.004 µg/mL and the solubility [2] is given as 4 to 6 µg/mL (≈ 5.67 to 8.5 µM).

In the case of CC(C)c1nc(CN(C)C(=O)N[C@H](C(=O)N[C@@H](Cc2ccccc2)C[C@H](O)[C@H](Cc2ccccc2)NC(=O)OCc2cncs2)C(C)C)cs1 [Ritonavir, 5-thiazolylmethyl ((alphaS)-alpha-((1S,3S)-1-hydroxy-3-((2S)-2-(3-((2-isopropyl-4-thiazolyl)methyl)-3-methylureido)-3-methylbutyramido)-4-phenylbutyl)phenethyl)carbamate], the Form [3] is given as “Crystalline” and the “Glass transition temperature, Tg (° C.)” value [4] is given as 45 °C.
